Measurements from ChEMBL document CHEMBL1201862, “PubChem BioAssay data set” (2004).
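Briefly, cells in 96-well plates were exposed to five compound concentrations for 48 h, and endpoints were estimated by linear interpolation. Abbreviation: GI50, concentration required for 50% inhibition of growth.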 Active and inactive are the calls of the source. Cut-off read from the data, not from the text of the source: active = GI50 up to about 1.1 µM and inactive = higher.

Experiments:
Experiment in all cases: growth of human tumour cells (NCI), 48 h
CAKI-1 = tested on: CAKI-1
COLO 205 = tested on: COLO 205
HCT-116 = tested on: HCT-116
HOP-92 = tested on: HOP-92
Hs-578T = tested on: Hs-578T
IGROV-1 = tested on: IGROV-1
MCF7 = tested on: MCF7
MDA-MB-435 = tested on: MDA-MB-435
MDA-N = tested on: MDA-N
MOLT-4 = tested on: MOLT-4
Malme-3M = tested on: Malme-3M
OVCAR-3 = tested on: OVCAR-3
OVCAR-5 = tested on: OVCAR-5
PC-3 = tested on: PC-3
RXF 393 = tested on: RXF 393
SR = tested on: SR
T47D = tested on: T47D
U-251 = tested on: U-251
UACC-62 = tested on: UACC-62
HCT-15 = tested on: HCT-15

SMILES | GI50 (CAKI-1) | GI50 (COLO 205) | GI50 (HCT-116) | GI50 (HOP-92) | GI50 (Hs-578T) | GI50 (IGROV-1) | GI50 (MCF7) | GI50 (MDA-MB-435) | GI50 (MDA-N) | GI50 (MOLT-4) | GI50 (Malme-3M) | GI50 (OVCAR-3) | GI50 (OVCAR-5) | GI50 (PC-3) | GI50 (RXF 393) | GI50 (SR) | GI50 (T47D) | GI50 (U-251) | GI50 (UACC-62) | GI50 (HCT-15)
CCNC(=O)Nc1cccc(C)n1 | > 100 µM (inactive) | > 100 µM (inactive) | > 100 µM (inactive) | > 100 µM (inactive) | > 100 µM (inactive) | > 100 µM (inactive) | > 100 µM (inactive) | > 100 µM (inactive) | > 100 µM (inactive) | > 100 µM (inactive) | > 100 µM (inactive) | > 100 µM (inactive) | > 100 µM (inactive) | > 100 µM (inactive) | > 100 µM (inactive) | > 100 µM (inactive) | > 100 µM (inactive) | > 100 µM (inactive) | 99.1 µM (inactive) | –
COc1ccc2nc3c(nc2c1)C(C)(C)C=C3c1ccc(Br)cc1 | > 100 µM (inactive) | > 100 µM (inactive) | > 100 µM (inactive) | 32.5 µM (inactive) | > 100 µM (inactive) | > 100 µM (inactive) | > 100 µM (inactive) | > 100 µM (inactive) | > 100 µM (inactive) | > 100 µM (inactive) | > 100 µM (inactive) | – | > 100 µM (inactive) | > 100 µM (inactive) | > 100 µM (inactive) | > 100 µM (inactive) | > 100 µM (inactive) | 97.9 µM (inactive) | – | > 100 µM
CC(=O)/N=C1/N(/C=C2\C(=O)Oc3ccccc3C2=O)C(=O)/C(=C/c2cccc(Cl)c2Cl)N1C | 27.4 µM (inactive) | 31.3 µM (inactive) | 29.4 µM (inactive) | 0.0333 µM (active) | 3.87 µM (inactive) | 21.4 µM (inactive) | 25.7 µM (inactive) | 25.6 µM (inactive) | 42.8 µM (inactive) | 20.7 µM (inactive) | 33.6 µM (inactive) | 1.39 µM (inactive) | 30.3 µM (inactive) | 35.3 µM (inactive) | 31.6 µM (inactive) | 10.8 µM (inactive) | 32.1 µM (inactive) | 23.1 µM (inactive) | 31 µM (inactive) | 9.82 µM
CC(C)(C)c1nc2c(o1)C(=O)c1ccccc1C2=O | 2.78 µM (inactive) | 4.81 µM (inactive) | 0.838 µM (active) | 3.05 µM (inactive) | 0.927 µM (active) | 2.46 µM (inactive) | 0.485 µM (active) | 0.185 µM (active) | 0.199 µM (active) | 1.76 µM (inactive) | 0.574 µM (active) | 0.721 µM (active) | 2.38 µM (inactive) | 0.505 µM (active) | 2.08 µM (inactive) | 3.16 µM (inactive) | 0.627 µM (active) | 1.72 µM (inactive) | 0.653 µM (active) | 2.48 µM
CSC1=N/C(=C\c2ccco2)C(=O)N1CN1CCOCC1 | 32 µM (inactive) | 38.5 µM (inactive) | 29.2 µM (inactive) | – | > 100 µM (inactive) | > 61.1 µM (inactive) | 23 µM (inactive) | > 62.2 µM (inactive) | > 100 µM (inactive) | 59.7 µM (inactive) | > 46.1 µM (inactive) | > 100 µM (inactive) | > 100 µM (inactive) | > 93.8 µM (inactive) | 20.4 µM (inactive) | 41.3 µM (inactive) | 48.1 µM (inactive) | > 100 µM (inactive) | 44.6 µM (inactive) | 33.7 µM
O=c1[nH]nc(-c2cccc([N+](=O)[O-])c2)[nH]1 | > 100 µM (inactive) | > 100 µM (inactive) | > 100 µM (inactive) | – | 47.3 µM (inactive) | > 100 µM (inactive) | > 100 µM (inactive) | > 100 µM (inactive) | > 100 µM (inactive) | > 100 µM (inactive) | > 100 µM (inactive) | > 100 µM (inactive) | > 100 µM (inactive) | > 100 µM (inactive) | > 100 µM (inactive) | > 100 µM (inactive) | > 100 µM (inactive) | > 100 µM (inactive) | > 100 µM (inactive) | > 100 µM
CC(C)C(C/C=C1/CC(CO)(COC(=O)CC(C(C)C)C(C)C)OC1=O)C(C)C (centres undefined) | 2.15 µM (inactive) | 0.0811 µM (active) | 16.2 µM (inactive) | 0.998 µM (active) | 0.102 µM (active) | 17.1 µM (inactive) | 13.6 µM (inactive) | 0.475 µM (active) | 11.5 µM (inactive) | – | 10.7 µM (inactive) | 13.8 µM (inactive) | 9.42 µM (inactive) | 4.85 µM (inactive) | 11.1 µM (inactive) | 17.1 µM (inactive) | 0.982 µM (active) | 11.6 µM (inactive) | 15.7 µM (inactive) | 15.6 µM
CC1(C)O[C@@H]2COC(=O)[C@@H]2O1 | > 100 µM (inactive) | > 100 µM (inactive) | > 100 µM (inactive) | > 100 µM (inactive) | > 100 µM (inactive) | > 100 µM (inactive) | > 100 µM (inactive) | > 100 µM (inactive) | > 100 µM (inactive) | > 100 µM (inactive) | > 100 µM (inactive) | > 100 µM (inactive) | > 100 µM (inactive) | > 100 µM (inactive) | > 100 µM (inactive) | > 100 µM (inactive) | > 100 µM (inactive) | > 100 µM (inactive) | > 100 µM (inactive) | > 100 µM
